# Measured values as given in US6855710B2, “Substituted indolines with an inhibitory effect on various kinases and complexes of CDKs” (Boehringer Ingelheim Pharma KG, priority 1998, dated 2005).
row,SMILES,melting point
1,"Nc1cccc(N/C(=C2\C(=O)Nc3ccccc32)c2ccccc2)c1 [Example 69, (Z)-3-[1-(3-aminophenylamino)-1-phenyl-methylidene]-2-indolinone]",267 to 268 °C
2,"CN(C)CCN(c1ccc(N/C(=C2\C(=O)Nc3ccccc32)c2ccccc2)cc1)S(=O)(=O)c1ccccc1 [Example 312, (Z)-3-{1-[4-(N-(2-dimethylaminoethyl)-N-phenylsulphonyl-amino)-phenylamino]-1-phenyl-methylidene}-2-indolinone]",241 to 243 °C
3,"CNC(=O)CN(C(C)=O)c1ccc(N/C(=C2\C(=O)Nc3ccccc32)c2ccccc2)cc1 [Example 354, (Z)-3-{1-[4-(N-methylaminocarbonylmethyl-N-acetyl-amino)-phenylamino]-1-phenyl-methylidene}-2-indolinone]",270 °C (dec.)
4,"CN(C)C(=O)CN(C(=O)c1ccccc1)c1ccc(N/C(=C2\C(=O)Nc3ccccc32)c2ccccc2)cc1 [Example 363, (Z)-3-{1-[4-(N-dimethylaminocarbonylmethyl-N-benzoyl-amino)-phenylamino]-1-phenyl-methylidene}-2-indolinone]",284 to 287 °C
5,"CC(=O)O.N=C(N)c1ccc(N/C(=C2\C(=O)Nc3ccccc32)c2ccccc2)cc1 [Example 62, (Z)-3-{1-[N-(4-amidinophenyl)-amino]-1-phenyl-methylidene}-2-indolinone-hydroacetate]",> 260 °C (dec.)
6,"O=C1Nc2ccc([N+](=O)[O-])cc2/C1=C(/Nc1cccc(CN2CCCCC2)c1)c1ccccc1 [Example 108, (Z)-3-[1-(3-piperidinomethyl-phenylamino)-1-phenyl-methylidene]-5-nitro-2-indolinone]",214 to 215 °C
7,"CN(C)S(=O)(=O)c1ccc(N/C(=C2\C(=O)Nc3ccccc32)c2ccccc2)cc1 [Example 405, (Z)-3-{1-[4-(dimethylaminosulphonyl)-phenylamino]-1-phenyl-methylidene}-2-indolinone]",280 °C
8,"CCOC(=O)CCNCc1cccc(N/C(=C2\C(=O)Nc3ccc([N+](=O)[O-])cc32)c2ccccc2)c1 [Example 112, (Z)-3-{1-[3-(2-ethoxycarbonyl-ethylaminomethyl)-phenylamino]-1-phenyl-methylidene}-5-nitro-2-indolinone]",142 to 145 °C
9,"CCC(=O)N(CCN1CCOCC1)c1ccc(N/C(=C2\C(=O)Nc3ccc([N+](=O)[O-])cc32)c2ccccc2)cc1 [Example 335, (Z)-3-{1-[4-(N-(2-morpholinoethyl)-N-propionyl-amino)-phenylamino]-1-phenyl-methylidene}-5-nitro-2-indolinone]",232 °C
10,"CC(C)CNCc1ccc(N/C(=C2\C(=O)Nc3ccc([N+](=O)[O-])cc32)c2ccccc2)cc1 [Example 164, (Z)-3-[1-(4-isobutylaminomethyl-phenylamino)-1-phenyl-methylidene]-5-nitro-2-indolinone]",208 °C
11,"CN(C)CCCNS(=O)(=O)c1ccc(N/C(=C2\C(=O)Nc3ccc([N+](=O)[O-])cc32)c2ccccc2)cc1 [Example 403, (Z)-3-{1-[4-(3-dimethylamino-propylaminosulphonyl)-phenylamino]-1-phenyl-methylidene}-5-nitro-2-indolinone]",268 to 269 °C
12,"CN(C)CCNS(=O)(=O)c1ccc(N/C(=C2\C(=O)Nc3ccccc32)c2ccccc2)cc1 [Example 399, (Z)-3-{1-[4-(2-dimethylamino-ethylaminosulphonyl)-phenylamino]-1-phenyl-methylidene}-2-indolinone]",233 to 235 °C
13,"CC(C)(C)OC(=O)NCC(=O)Nc1ccc(N/C(=C2\C(=O)Nc3ccccc32)c2ccccc2)cc1 [Example 34, (Z)-3-[1-(4-tert.butoxycarbonylaminomethylcarbonylamino-phenylamino)-1-phenyl-methylidene]-2-indolinone]",243 to 244 °C (dec.)
14,"O=C(O)CCNCc1cccc(N/C(=C2\C(=O)Nc3ccc([N+](=O)[O-])cc32)c2ccccc2)c1 [Example 252, (Z)-3-{1-[3-(2-carboxyethylaminomethyl)-phenylamino]-1-phenyl-methylidene}-5-nitro-2-indolinone]",247 to 249 °C
15,"CC(=O)NCc1ccc(/C(Nc2ccc(N(C)C(=O)CN(C)C)cc2)=C2/C(=O)Nc3ccccc32)cc1 [Example 431, (Z)-3-{1-[4-(N-dimethylaminomethylcarbonyl-N-methyl-amino)-phenylamino]-1-(4-acetylaminomethyl-phenyl)-methylidene}-2-indolinone]",123 to 125 °C
16,"CN(CC(=O)O)C(=O)c1ccc(N/C(=C2\C(=O)Nc3ccccc32)c2ccccc2)cc1 [Example 395, (Z)-3-{1-[4-(N-carboxymethyl-N-methyl-aminocarbonyl)-phenylamino]-1-phenyl-methylidene}-2-indolinone]",168 to 170 °C
17,"CC(=O)NCC(=O)N(C)c1ccc(N/C(=C2\C(=O)Nc3ccc([N+](=O)[O-])cc32)c2ccccc2)cc1 [Example 140, (Z)-3-{1-[4-(N-acetylaminomethylcarbonyl-N-methyl-amino)phenylamino]-1-phenyl-methylidene}-5-nitro-2-indolinone]",277 to 278 °C

row,SMILES,melting point
1,"CS(=O)(=O)N(CC(N)=O)c1cccc(N/C(=C2\C(=O)Nc3ccccc32)c2ccc(CN)cc2)c1 [Example 416, (Z)-3-{1-[3-(N-aminocarbonylmethyl-N-methylsulphonyl-amino)-phenylamino]-1-(4-aminomethyl-phenyl)-methylidene}-2-indolinone]",167 °C
2,"CCCC(=O)N(CCN1CCOCC1)c1ccc(N/C(=C2\C(=O)Nc3ccccc32)c2ccccc2)cc1 [Example 351, (Z)-3-{1-[4-(N-(2-morpholinoethyl)-N-propylcarbonyl-amino)-phenylamino]-1-phenyl-methylidene}-2-indolinone]",219 °C
3,"CCC(=O)N(CC(=O)N(C)C)c1ccc(N/C(=C2\C(=O)Nc3ccccc32)c2ccccc2)cc1 [Example 359, (Z)-3-{1-[4-(N-dimethylaminocarbonylmethyl-N-propionyl-amino)-phenylamino]-1-phenyl-methylidene}-2-indolinone]",274 to 277 °C
4,"CN(C)Cc1ccc(N/C(=C2\C(=O)Nc3ccc([N+](=O)[O-])cc32)c2cccc(Cl)c2)cc1 [Example 224, (Z)-3-[1-(4-dimethylaminomethyl-phenylamino)-1-(3-chlorophenyl)-methylidene]-5-nitro-2-indolinone]",274 °C
5,"CN(C)C(=O)CN(c1ccc(N/C(=C2\C(=O)Nc3ccc([N+](=O)[O-])cc32)c2ccccc2)cc1)S(=O)(=O)c1ccccc1 [Example 209, (Z)-3-{1-[4-(N-dimethylaminocarbonylmethyl-N-phenylsulphonyl-amino)-phenylamino]-1-phenyl-methylidene}-5-nitro-2-indolinone]",160 to 162 °C
6,Cl.NCC(=O)NCc1cccc(N/C(=C2\C(=O)Nc3ccc([N+](=O)[O-])cc32)c2ccccc2)c1,309 °C
7,"O=C1Nc2ccc([N+](=O)[O-])cc2/C1=C(/Nc1ccc(CNc2ccccn2)cc1)c1ccccc1 [Example 279, (Z)-3-{1-[4-(pyridine-2-ylaminomethyl)-phenylamino]-1-phenyl-methylidene}-5-nitro-2-indolinone]",266 to 268 °C
8,"CC(=O)N(CCN(C)C)c1ccc(N/C(=C2\C(=O)Nc3ccccc32)c2ccccc2)cc1 [Example 340, (Z)-3-{1-[4-(N-(2-dimethylaminoethyl)-N-acetyl-amino)-phenylamino]-1-phenyl-methylidene}-2-indolinone]",197 to 199 °C
9,"CCOC(=O)CN(C)S(=O)(=O)c1ccc(N/C(=C2\C(=O)Nc3ccccc32)c2ccccc2)cc1 [Example 408, (Z)-3-{1-[4-(N-ethoxycarbonylmethyl-N-methyl-aminosulphonyl)-phenylamino]-1-phenyl-methylidene}-2-indolinone]",178 to 180 °C
10,"CN(C(=O)CN1CCCCC1)c1ccc(N/C(=C2\C(=O)Nc3ccccc32)c2ccccc2)cc1 [Example 50, (Z)-3-{1-[4-(N-piperidinomethylcarbonyl-N-methyl-amino)-phenylamino]-1-phenyl-methylidene}-2-indolinone]",230 to 235 °C (dec.)
11,"Cc1ccc(S(=O)(=O)N(CC(=O)N(C)C)c2ccc(N/C(=C3\C(=O)Nc4ccc([N+](=O)[O-])cc43)c3ccccc3)cc2)cc1 [Example 210, (Z)-3-{1-[4-(N-dimethylaminocarbonylmethyl-N-(p-tolylsulphonyl)-amino)-phenylamino]-1-phenyl-methylidene}-5-nitro-2-indolinone]",198 to 200 °C
12,"O=C1Nc2ccc([N+](=O)[O-])cc2/C1=C(/Nc1ccc(CNC2CCCCC2)cc1)c1ccccc1 [Example 278, (Z)-3-{1-[4-(cyclohexylaminomethyl)-phenylamino]-1-phenyl-methylidene}-5-nitro-2-indolinone]",245 °C
13,"CN(C)CCN(C)C(=O)CN(c1ccc(N/C(=C2\C(=O)Nc3ccccc32)c2ccccc2)cc1)S(C)(=O)=O [Example 293, (Z)-3-{1-[4-(N—((N-(2-dimethylaminoethyl)-N-methyl-amino)-carbonylmethyl)-N-methylsulphonyl-amino)-phenylamino]-1-phenyl-methylidene}-2-indolinone]",170 °C
14,"CN(C(=C1C(=O)Nc2ccccc21)c1ccccc1)c1ccc(C#N)cc1 [Example 61, 3-{1-[N-(4-cyanophenyl)-N-methyl-amino]-1-phenyl-methylidene}-2-indolinone]",239 °C
15,"O=C1Nc2ccc([N+](=O)[O-])cc2/C1=C(/Nc1ccc(CN2CCCCCC2)cc1)c1ccccc1 [Example 119, (Z)-3-[1-(4-hexamethyleneiminomethyl-phenylamino)-1-phenyl-methylidene]-5-nitro-2-indolinone]",220 °C
16,"O=C1Nc2ccc([N+](=O)[O-])cc2/C1=C(/Nc1ccc(CN2CC[S+]([O-])CC2)cc1)c1ccccc1 [Example 230, (Z)-3-{1-[4-((1-oxothiomorpholino)-methyl)-phenylamino]-1-phenyl-methylidene}-5-nitro-2-indolinone]",289 to 290 °C
